Measured values as given in ChEMBL document CHEMBL2380250, “Novel VEGFR-2 kinase inhibitors identified by the back-to-front approach” (Bioorg Med Chem Lett, 2013).
Activity calls are given as the source filed them. No cut-off for these calls is given here.

Legend:
[1] = target: Epidermal growth factor receptor (Homo sapiens) (UniProt P00533); assay: Inhibition of human recombinant EGFR expressed in insect cells using Ulight-CAGAGAIETDKEYYTVKD as substrate at 1 uM after 15 to 60 mins by fluorescence assay
[2] = target: Platelet-derived growth factor receptor beta (Homo sapiens) (UniProt P09619); assay: Inhibition of human recombinant PDGFR-beta expressed in insect cells using Ulight-Poly GAT[EAY(1:1:1)] as substrate at 1 uM after 15 to 60 mins by fluorescence assay
HepG2 = assay: Cytotoxicity against human HepG2 cells assessed as growth inhibition by MTT assay; assay type: cell-based
[3] = Cytotoxicity against human EAhy926 cells assessed as growth inhibition by MTT assay; assay type: cell-based; conditions: EA.hy 926
EA.hy 926 = assay: Antiangiogenic activity in VEGF-stimulated human EAhy926 cells assessed as inhibition of tube formation at 0.3 uM measured at 24 hrs; assay type: functional, cell-based
[4] = Ratio of cytotoxicity against human EAhy926 cells to antiangiogenic activity in VEGF-stimulated human EAhy926 cells; assay type: toxicity, cell-based
[5] = target: Vascular endothelial growth factor receptor 2 (Homo sapiens, UniProt P35968); assay: Inhibition of human recombinant VEGFR2 expressed in insect cells using Ulight-CAGAGAIETDKEYYTVKD as substrate after 15 to 60 mins by fluorescence assay
MCF7 = assay: Cytotoxicity against human MCF7 cells assessed as growth inhibition by MTT assay; assay type: cell-based
[6] = Cytotoxicity against human H460 cells assessed as growth inhibition by MTT assay; assay type: cell-based; conditions: NCI-H460
HeLa = assay: Cytotoxicity against human HeLa cells assessed as growth inhibition by MTT assay; assay type: cell-based
HUVEC = assay: Cytotoxicity against HUVEC by MTT assay; conditions: Homo sapiens

Epidermal growth factor receptor (Homo sapiens), sequence (P00533 whole entry): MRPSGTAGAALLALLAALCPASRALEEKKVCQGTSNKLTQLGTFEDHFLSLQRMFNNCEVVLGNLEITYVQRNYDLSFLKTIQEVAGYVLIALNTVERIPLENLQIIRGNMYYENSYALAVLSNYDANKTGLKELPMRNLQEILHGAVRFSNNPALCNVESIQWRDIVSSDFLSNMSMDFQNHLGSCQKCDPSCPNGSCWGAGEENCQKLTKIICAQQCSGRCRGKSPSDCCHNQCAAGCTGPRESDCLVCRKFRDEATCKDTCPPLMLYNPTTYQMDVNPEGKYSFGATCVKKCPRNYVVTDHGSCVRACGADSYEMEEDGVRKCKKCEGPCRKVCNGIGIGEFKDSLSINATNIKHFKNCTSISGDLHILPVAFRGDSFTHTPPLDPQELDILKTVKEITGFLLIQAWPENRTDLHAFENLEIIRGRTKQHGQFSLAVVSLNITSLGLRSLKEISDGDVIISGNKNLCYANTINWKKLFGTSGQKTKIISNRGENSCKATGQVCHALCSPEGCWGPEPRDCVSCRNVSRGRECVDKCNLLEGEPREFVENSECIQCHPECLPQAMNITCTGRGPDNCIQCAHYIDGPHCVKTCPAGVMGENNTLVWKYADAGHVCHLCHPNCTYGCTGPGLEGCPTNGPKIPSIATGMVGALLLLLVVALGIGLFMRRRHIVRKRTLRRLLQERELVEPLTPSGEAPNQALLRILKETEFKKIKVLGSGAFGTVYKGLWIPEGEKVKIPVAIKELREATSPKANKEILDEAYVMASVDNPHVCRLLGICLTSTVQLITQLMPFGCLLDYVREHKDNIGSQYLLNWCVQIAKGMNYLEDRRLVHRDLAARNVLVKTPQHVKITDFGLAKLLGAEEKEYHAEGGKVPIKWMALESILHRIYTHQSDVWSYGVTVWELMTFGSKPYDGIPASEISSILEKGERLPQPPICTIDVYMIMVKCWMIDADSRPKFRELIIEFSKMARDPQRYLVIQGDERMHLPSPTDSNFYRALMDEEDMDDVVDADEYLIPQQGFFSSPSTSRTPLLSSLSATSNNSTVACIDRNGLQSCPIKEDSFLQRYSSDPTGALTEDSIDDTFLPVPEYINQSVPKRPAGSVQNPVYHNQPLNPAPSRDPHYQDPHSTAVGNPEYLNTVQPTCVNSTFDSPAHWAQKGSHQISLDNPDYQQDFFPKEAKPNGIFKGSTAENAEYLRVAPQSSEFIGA
Platelet-derived growth factor receptor beta (Homo sapiens), sequence (P09619 whole entry): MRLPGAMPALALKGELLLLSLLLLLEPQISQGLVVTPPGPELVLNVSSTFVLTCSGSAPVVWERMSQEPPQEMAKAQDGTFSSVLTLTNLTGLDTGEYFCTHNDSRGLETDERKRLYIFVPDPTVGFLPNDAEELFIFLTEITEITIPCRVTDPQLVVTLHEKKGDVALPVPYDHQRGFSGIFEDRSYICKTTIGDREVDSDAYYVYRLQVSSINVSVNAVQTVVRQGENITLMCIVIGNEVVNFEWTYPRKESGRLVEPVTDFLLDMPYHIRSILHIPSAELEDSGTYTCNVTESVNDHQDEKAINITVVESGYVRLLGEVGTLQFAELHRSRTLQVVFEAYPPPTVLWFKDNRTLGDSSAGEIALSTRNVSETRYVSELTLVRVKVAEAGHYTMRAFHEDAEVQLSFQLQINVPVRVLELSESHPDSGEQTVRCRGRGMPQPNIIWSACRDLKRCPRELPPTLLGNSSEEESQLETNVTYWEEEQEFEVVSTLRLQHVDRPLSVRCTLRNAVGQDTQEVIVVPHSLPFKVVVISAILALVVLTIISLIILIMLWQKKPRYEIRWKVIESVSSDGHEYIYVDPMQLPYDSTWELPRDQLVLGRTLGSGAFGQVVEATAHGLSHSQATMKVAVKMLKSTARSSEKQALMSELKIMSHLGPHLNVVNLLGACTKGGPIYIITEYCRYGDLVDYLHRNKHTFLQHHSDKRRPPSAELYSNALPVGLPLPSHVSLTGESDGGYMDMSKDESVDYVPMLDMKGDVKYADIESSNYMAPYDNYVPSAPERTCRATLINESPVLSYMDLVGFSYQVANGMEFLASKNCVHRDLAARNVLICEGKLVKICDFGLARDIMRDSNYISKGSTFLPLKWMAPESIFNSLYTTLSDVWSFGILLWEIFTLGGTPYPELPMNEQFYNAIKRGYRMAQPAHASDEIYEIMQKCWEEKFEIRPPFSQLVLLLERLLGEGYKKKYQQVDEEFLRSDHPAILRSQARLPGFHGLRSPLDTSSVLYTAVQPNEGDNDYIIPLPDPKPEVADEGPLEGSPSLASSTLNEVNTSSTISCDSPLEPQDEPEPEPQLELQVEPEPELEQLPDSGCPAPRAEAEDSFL
Vascular endothelial growth factor receptor 2, sequence (P35968 whole entry): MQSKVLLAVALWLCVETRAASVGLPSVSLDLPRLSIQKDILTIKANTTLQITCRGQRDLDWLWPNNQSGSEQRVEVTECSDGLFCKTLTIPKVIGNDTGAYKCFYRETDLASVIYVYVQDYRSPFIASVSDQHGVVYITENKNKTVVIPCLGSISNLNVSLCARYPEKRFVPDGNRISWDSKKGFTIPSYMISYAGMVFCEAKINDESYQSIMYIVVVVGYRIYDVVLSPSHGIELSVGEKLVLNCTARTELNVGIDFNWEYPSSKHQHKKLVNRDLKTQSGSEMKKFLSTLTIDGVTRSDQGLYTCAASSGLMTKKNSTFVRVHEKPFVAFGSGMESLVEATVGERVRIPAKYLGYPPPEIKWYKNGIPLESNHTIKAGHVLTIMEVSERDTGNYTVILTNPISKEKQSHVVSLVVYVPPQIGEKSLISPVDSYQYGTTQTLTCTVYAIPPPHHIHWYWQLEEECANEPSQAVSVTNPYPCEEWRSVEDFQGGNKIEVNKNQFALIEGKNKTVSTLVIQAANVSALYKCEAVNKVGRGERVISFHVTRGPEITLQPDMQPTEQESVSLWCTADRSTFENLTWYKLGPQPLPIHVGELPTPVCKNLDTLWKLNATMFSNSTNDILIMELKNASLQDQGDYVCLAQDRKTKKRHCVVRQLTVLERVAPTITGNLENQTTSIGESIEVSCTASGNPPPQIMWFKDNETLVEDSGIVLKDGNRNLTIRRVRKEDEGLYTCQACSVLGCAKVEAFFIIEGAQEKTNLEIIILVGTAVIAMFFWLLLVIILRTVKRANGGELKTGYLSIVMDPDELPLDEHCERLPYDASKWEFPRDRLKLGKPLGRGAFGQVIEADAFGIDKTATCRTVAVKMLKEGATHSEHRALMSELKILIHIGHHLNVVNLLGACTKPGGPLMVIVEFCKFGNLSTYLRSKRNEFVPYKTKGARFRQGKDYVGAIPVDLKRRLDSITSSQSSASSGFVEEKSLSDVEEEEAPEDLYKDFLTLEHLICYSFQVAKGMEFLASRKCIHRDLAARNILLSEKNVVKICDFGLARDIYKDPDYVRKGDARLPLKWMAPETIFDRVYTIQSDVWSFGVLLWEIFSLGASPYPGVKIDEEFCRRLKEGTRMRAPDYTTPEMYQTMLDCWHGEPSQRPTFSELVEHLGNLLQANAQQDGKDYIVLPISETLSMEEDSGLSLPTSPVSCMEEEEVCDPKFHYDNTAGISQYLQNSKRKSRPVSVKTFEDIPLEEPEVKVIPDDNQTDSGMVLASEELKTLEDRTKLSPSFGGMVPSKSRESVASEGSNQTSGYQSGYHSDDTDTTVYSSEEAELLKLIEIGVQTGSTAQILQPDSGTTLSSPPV

SMILES	inhibition [1]	inhibition [2]	also measured
O=C(NCc1cn(-c2ccc(S(=O)(=O)N3CCOCC3)cc2)nn1)Nc1cccc(CCl)c1	Active	inactive	–
O=C(NCc1cn(-c2ccc3ncsc3c2)nn1)Nc1cccc(CCl)c1	Active	inactive	–
COC(=O)c1ccc(-n2cc(CNC(=O)Nc3cccc(CCl)c3)nn2)cc1	Active	inactive	–
C#CCNC(=O)Nc1cccc(CCl)c1	Active	inactive	–
O=C(NCc1cn(-c2ccc3scnc3c2)nn1)Nc1cccc(CCl)c1	Active	inactive	–
CC(=O)N1CCc2ccc(-n3cc(CNC(=O)Nc4cccc(CCl)c4)nn3)cc21	Active	inactive	–
CNC(=O)c1cc(Oc2ccc(NC(=O)Nc3ccc(Cl)c(C(F)(F)F)c3)cc2)ccn1 [SORAFENIB]	–	–	IC50 (HUVEC): 4 µM
NS(=O)(=O)c1ccc(-n2cc(CNC(=O)Nc3cccc(CCl)c3)nn2)cc1	Active	inactive	–

Further lines, with some results ahead:

inhibition [1]	inhibition [2]	SMILES	also measured
Active	inactive	O=C(NCc1cn(-c2ccc3[nH]ncc3c2)nn1)Nc1cccc(CCl)c1	–
Active	inactive	NS(=O)(=O)c1cccc(-n2cc(CNC(=O)Nc3cccc(CCl)c3)nn2)c1	–
Active	inactive	O=C(NCc1cn(-c2ccc3cn[nH]c3c2)nn1)Nc1cccc(CCl)c1	IC50 (HepG2): > 100 µM; IC50 [3]: 4 µM; inhibition (EA.hy 926): Active; selectivity ratio [4]: 13; IC50 [5]: 0.56 µM; IC50 (MCF7): 21 µM; IC50 [6]: 71 µM; IC50 (HeLa): 33 µM
Active	inactive	O=C(NCc1cn(CCN2C(=O)c3ccccc3C2=O)nn1)Nc1cccc(CCl)c1	–
Active	inactive	O=C(NCc1cn(Cc2cc(=O)[nH]c3ccccc23)nn1)Nc1cccc(CCl)c1	–
